Counter-ions that a name gives are not always drawn. Like-named read-outs stand apart in the source and are kept apart here.
Test system: BDNF-induced nuclear Arc expression in primary cortical neurons
Test: Chemogenomic screen: high-content image-based assay of BDNF-induced nuclear Arc expression (96-well)
Type: cell-based, mouse
Description: To increase the throughput of our pharmacological screening for modulators of Arc, the above mentioned assay was adapted to cultures of mouse primary cortical neurons in 96-well plates.
All 319 compounds were initially tested at a final concentration of 16.7 µM with three biological replicates.
Screening of compounds in the chemogenomic library was carried out using DIV13 primary forebrain cortical neurons cultured on poly-L-lysine/laminin-coated 96-well plates (Ibidi USA, Madison, WI). Cells were seeded at a density of 30,000 cells per well and treated with the compound library and BDNF according to the experimental design presented in Fig. 3a. After experimental treatment, cells were processed for Arc and acetyl-H3K9 immunocytochemistry according to the protocol described above. Both antigens (Arc and acetyl-H3K9) were imaged using an IN Cell Analyzer 6000 imaging system and a ×40 objective. […] High-throughput quantification of nuclear Arc immunofluorescence signal was performed in a similar fashion than the low-throughput procedure described above but with the exception that acetyl-H3K9 was used as a nuclear mask to guide the automated quantification of nuclear Arc immunofluorescence signal.

[1] = BDNF-induced nuclear Arc expression, primary cortical neurons, chemogenomic screen
[2] = nuclear Arc-positive cells relative to DMSO control (BDNF), negative = decrease
[3] = chemogenomic (SMART) screen, BDNF-induced nuclear Arc expression, primary cortical neurons, BDNF control 19.5
[4] = nuclear Arc-positive cells relative to DMSO + BDNF control, negative values = decrease

Q: With `COc1ccc(CNC(=O)Nc2ncc([N+](=O)[O-])s2)cc1` [AR-A014418] as the compound, how does the “Percentage of cell with nuclear Arc immunostaining above 2σ threshold” value (from here on “Percentage of cell”) [1] read?
A: 4.9%

Q: What about the “Fold-change — Normalized to DMSO control (BDNF)” value (“Fold-change — Normalized” for short) [2] of the same compound?
A: -4.0 fold

Q: For `COCCCC/C(=N\OCCN)c1ccc(C(F)(F)F)cc1` [Fluvoxamine], which “Percentage of cell” value [1] is on record?
A: 8.5%

Q: With `CN(C)CCC(c1ccc(Cl)cc1)c1ccccn1` (centres unmarked) [Chlorphenamine] as the compound, how does the “Percentage of cell” value [3] read?
A: 31.0%

Q: What about the “Fold-change — Normalized” value [4] of the same compound?
A: 1.6 fold

Q: Which “Percentage of cell” value [1] does the source give for `OCCN1CCN(CCCN2c3ccccc3Sc3ccc(C(F)(F)F)cc32)CC1` [Fluphenazine] here?
A: 0.3%

Q: How did the “Percentage of cell” value [3] turn out when `CCCN(CCC)CCc1cccc2c1CC(=O)N2` [Ropinirole] was run?
A: 14.2%

Q: `O=C(CCCN1CCC2(CC1)C(=O)NCN2c1ccccc1)c1ccc(F)cc1` [Spiperone] was tested. Which “Percentage of cell” value [3] did it give?
A: 23.6%

Q: What about the “Fold-change — Normalized” value [4] of the same compound?
A: 1.2 fold

Q: For `Cn1c(=O)c2c(ncn2CC(O)CO)n(C)c1=O` (centres unmarked) [Dyphylline], which “Percentage of cell” value [3] is on record?
A: 17.0%

Q: `CCNC1=Nc2ccc(Cl)cc2C(C)(c2ccccc2)O1` (centres unmarked) [Etifoxine] was tested. Which “Percentage of cell” value did it give?
A: 0.0%

Q: With `CN(CCOc1ccc(CC2SC(=O)NC2=O)cc1)c1ccccn1` (centres unmarked) [Rosiglitazone] as the compound, how does the “Percentage of cell” value [3] read?
A: 29.8%

Q: And the “Fold-change — Normalized” value [4]?
A: 1.5 fold

Q: Which “Fold-change — Normalized” value does the source give for `CCOC(=O)Nc1ccc(NCc2ccc(F)cc2)cc1N` [Retigabine] here?
A: 1.7 fold

Q: What about the “Percentage of cell” value of the same compound?
A: 32.9%

Q: `CC(C)S(=O)(=O)N[C@H]1CCOC[C@@H]1c1ccc(-c2ccc(C#N)s2)cc1` [PF 4778574] was tested. Which “Percentage of cell” value did it give?
A: 35.9%

Q: And the “Fold-change — Normalized” value [4]?
A: 1.8 fold

Q: `N[C@@H]1C[C@H]1c1ccccc1` [Tranylcypromine hydrochloride] was tested. Which “Percentage of cell” value [3] did it give?
A: 26.6%

Q: What about the “Fold-change — Normalized” value [4] of the same compound?
A: 1.4 fold

Q: Which “Percentage of cell” value does the source give for `COc1cccc(C2(O)CCCCC2CN(C)C)c1` (centres unmarked) [Tramadol] here?
A: 7.5%

Q: With `COc1ccc(C(=O)N2CCCC2=O)cc1` [Aniracetam] as the compound, how does the “Percentage of cell” value [1] read?
A: 8.2%

Q: `Clc1ccc2c(c1)C(N1CCNCC1)=Nc1ccccc1O2` [Amoxapine] was tested. Which “Percentage of cell” value [3] did it give?
A: 12.9%

Q: `O=C(O[C@@H]1Cc2c(O)cc(O)cc2O[C@@H]1c1cc(O)c(O)c(O)c1)c1cc(O)c(O)c(O)c1` [(-)-Epigallocatechin gallate] was tested. Which “Percentage of cell” value [3] did it give?
A: 38.0%

Q: And the “Fold-change — Normalized” value [4]?
A: 1.9 fold

Q: How did the “Percentage of cell” value [3] turn out when `O=C(O)CCCNC(=O)c1cccnc1` [Pikamilone] was run?
A: 38.6%

Q: And the “Fold-change — Normalized” value [4]?
A: 2.0 fold

Q: What does the source list for `CCC(C)C(CC)C(N)=O` (centres unmarked) [Valnoctamide]?
A: Percentage of cell with nuclear Arc immunostaining above 2σ threshold [3]: 24.6%; Fold-change — Normalized to DMSO control (BDNF) [4]: 1.3 fold

Q: `Cn1sc(=O)n(Cc2ccccc2)c1=O` [TDZD-8] was tested. Which “Percentage of cell” value [1] did it give?
A: 1.7%

Q: And the “Fold-change — Normalized” value [2]?
A: -11.7 fold

Q: How did the “Percentage of cell” value [3] turn out when `O=C1c2ccccc2S(=O)(=O)N1CCCCN1CCN(c2ncccn2)CC1` [Ipsapirone] was run?
A: 27.4%

Q: And the “Fold-change — Normalized” value [4]?
A: 1.4 fold

Q: For `NCC(CC(=O)O)c1ccc(Cl)cc1` (centres unmarked) [Baclofen], which “Percentage of cell” value [3] is on record?
A: 28.6%

Q: And the “Fold-change — Normalized” value [4]?
A: 1.5 fold

Q: `O=c1[nH]c2ccccc2n1CCCN1CCC(n2c(=O)[nH]c3cc(Cl)ccc32)CC1` [Domperidone] was tested. Which “Percentage of cell” value [3] did it give?
A: 15.3%

Q: Which “Percentage of cell” value [1] does the source give for `CN(C)CCCN1c2ccccc2Sc2ccccc21` [Promazine] here?
A: 9.7%

Q: With `CN1CCC(=C2c3ccccc3CC(=O)c3sccc32)CC1` [Ketotifen] as the compound, how does the “Percentage of cell” value [3] read?
A: 12.3%

Q: How did the “Percentage of cell” value [3] turn out when `CCN(CC)CCOCCOC(=O)C1(c2ccccc2)CCCC1` [Carbetapentane] was run?
A: 17.2%

Q: How did the “Percentage of cell” value [3] turn out when `CCc1ccc(CCOc2ccc(CC3SC(=O)NC3=O)cc2)nc1` (centres unmarked) [Pioglitazone] was run?
A: 15.4%

Q: `O=C(O)C1CCCNC1` (centres unmarked) [Nipecotic acid] was tested. Which “Percentage of cell” value did it give?
A: 26.3%

Q: What about the “Fold-change — Normalized” value [4] of the same compound?
A: 1.4 fold

Q: Which results are given for `Clc1ccc2nsnc2c1NC1=NCCN1` [Tizanidine]?
A: Percentage of cell with nuclear Arc immunostaining above 2σ threshold [3]: 35.8%; Fold-change — Normalized to DMSO control (BDNF) [4]: 1.8 fold

Q: What does the source list for `NC(=O)CCC/N=C(\c1ccc(Cl)cc1)c1cc(F)ccc1O` [Progabide]?
A: Percentage of cell with nuclear Arc immunostaining above 2σ threshold [3]: 19.5%; Fold-change — Normalized to DMSO control (BDNF) [4]: 1.0 fold

Q: For `NC(=O)N1c2ccccc2CC(=O)c2ccccc21` [Oxcarbazepine], which “Percentage of cell” value [3] is on record?
A: 23.6%

Q: And the “Fold-change — Normalized” value [4]?
A: 1.2 fold

Q: What does the source list for `CN1CC(=O)NC1=O` [1-Methylhydantoin]?
A: Percentage of cell with nuclear Arc immunostaining above 2σ threshold [3]: 31.8%; Fold-change — Normalized to DMSO control (BDNF) [4]: 1.6 fold

Q: Which results are given for `CC(C)CC(N(C)C)C1(c2ccc(Cl)cc2)CCC1` (centres unmarked) [Sibutramine]?
A: Percentage of cell with nuclear Arc immunostaining above 2σ threshold: 21.3%; Fold-change — Normalized to DMSO control (BDNF) [4]: 1.1 fold

Q: How did the “Percentage of cell” value [3] turn out when `O=C(c1ccc(F)cc1)C1CCN(CCn2c(=O)[nH]c3ccccc3c2=O)CC1` [Ketanserin] was run?
A: 20.4%

Q: And the “Fold-change — Normalized” value [4]?
A: 1.0 fold

Q: `C=C[C@@]1(C)CC(=O)[C@]2(O)[C@@]3(C)[C@@H](O)CCC(C)(C)[C@@H]3[C@H](OC(=O)CCN(C)C)[C@H](OC(C)=O)[C@@]2(C)O1.Cl` [Colforsin dapropate hydrochloride] was tested. Which “Percentage of cell” value [3] did it give?
A: 21.7%

Q: What about the “Fold-change — Normalized” value [4] of the same compound?
A: 1.1 fold

Q: Which “Percentage of cell” value [1] does the source give for `Nc1c2c(nc3ccccc13)CCCC2` [Tacrine] here?
A: 8.3%

Q: Which results are given for `COc1cc(/C=C/C(=O)C(=Cc2ccc(F)c(F)c2)C(=O)/C=C/c2ccc(O)c(OC)c2)ccc1O` [3,4-Difluorobenzocurcumin]?
A: Percentage of cell with nuclear Arc immunostaining above 2σ threshold [1]: 1.4%; Fold-change — Normalized to DMSO control (BDNF) [2]: -14.1 fold

Q: For `O=C(CCCN1CCC(O)(c2ccc(Br)cc2)CC1)c1ccc(F)cc1` [Bromperidol], which “Percentage of cell” value [3] is on record?
A: 28.9%

Q: What about the “Fold-change — Normalized” value [4] of the same compound?
A: 1.5 fold

Q: Which “Percentage of cell” value [3] does the source give for `C[C@H](O)[C@H](O)[C@H]1CNc2nc(N)[nH]c(=O)c2N1` [Sapropterin] here?
A: 49.8%

Q: And the “Fold-change — Normalized” value [4]?
A: 2.6 fold

Q: How did the “Percentage of cell” value turn out when `CN1C(=O)CCS(=O)(=O)C1c1ccc(Cl)cc1` (centres unmarked) [Chlormezanone] was run?
A: 25.9%

Q: What about the “Fold-change — Normalized” value [4] of the same compound?
A: 1.3 fold

Q: `CCOc1ccccc1OC(c1ccccc1)C1CNCCO1` (centres unmarked) [Reboxetine] was tested. Which “Percentage of cell” value did it give?
A: 8.6%

Q: Which “Percentage of cell” value [3] does the source give for `CCCN[C@H]1CCc2nc(N)sc2C1` [Pramipexole] here?
A: 14.5%

Q: Which “Percentage of cell” value does the source give for `O=C1c2cc3c(cc2OC2CCCN12)OCCO3` (centres unmarked) [CX-614] here?
A: 13.1%

Q: What about the “Fold-change — Normalized” value [4] of the same compound?
A: -1.5 fold

Q: For `CN1CCc2c(c3ccccc3n2Cc2ccc(C(=O)NO)cc2)C1` [Tubastatin A], which “Percentage of cell” value [3] is on record?
A: 21.3%

Q: And the “Fold-change — Normalized” value [4]?
A: 1.1 fold

Q: How did the “Percentage of cell” value [3] turn out when `CCN(CC)C(C)CN1c2ccccc2Sc2ccccc21` (centres unmarked) [Ethopropazine] was run?
A: 27.2%

Q: What about the “Fold-change — Normalized” value [4] of the same compound?
A: 1.4 fold

Q: `CNC1(C)C2CCC(C2)C1(C)C` (centres unmarked) [Mecamylamine] was tested. Which “Percentage of cell” value [1] did it give?
A: 11.9%

Q: Which “Percentage of cell” value [3] does the source give for `CNCC(O)c1ccc(O)cc1` (centres unmarked) [Synephrine] here?
A: 27.8%

Q: And the “Fold-change — Normalized” value [4]?
A: 1.4 fold

Q: `O=c1[nH]c2cc(C(F)(F)F)c(N3CCOCC3)cc2n(CP(=O)(O)O)c1=O` [Fanapanel] was tested. Which “Percentage of cell” value [1] did it give?
A: 8.8%

Q: How did the “Percentage of cell” value [1] turn out when `CN1CCN(CCCN2c3ccccc3Sc3ccc(C(F)(F)F)cc32)CC1` [Trifluoperazine] was run?
A: 0.0%

Q: For `CN[C@@H]1Cc2cccc3[nH]c(=O)n(c23)C1` [Sumanirole], which “Percentage of cell” value [3] is on record?
A: 40.3%

Q: And the “Fold-change — Normalized” value [4]?
A: 2.1 fold

Q: How did the “Percentage of cell” value [3] turn out when `CCC1(c2ccccc2)C(=O)NCNC1=O` [Primidone] was run?
A: 17.3%

Q: What does the source list for `COc1cc(N)c(Cl)cc1C(=O)NC1CCN(Cc2ccccc2)CC1` [Clebopride]?
A: Percentage of cell with nuclear Arc immunostaining above 2σ threshold [3]: 25.8%; Fold-change — Normalized to DMSO control (BDNF) [4]: 1.3 fold

Q: `CN1CCN2c3ncccc3Cc3ccccc3C2C1` (centres unmarked) [Mirtazapine] was tested. Which “Percentage of cell” value [1] did it give?
A: 4.5%

Q: With `CN(C)CCC[C@@]1(c2ccc(F)cc2)OCc2cc(C#N)ccc21` [Escitalopram oxalate] as the compound, how does the “Percentage of cell” value [3] read?
A: 26.3%

Q: And the “Fold-change — Normalized” value [4]?
A: 1.4 fold

Q: How did the “Percentage of cell” value [1] turn out when `CN1CCN(CCCN2c3ccccc3Sc3ccc(Cl)cc32)CC1` [Prochlorperazine] was run?
A: 0.375%

Q: What does the source list for `C#CCN(C)CCCOc1ccc(Cl)cc1Cl` [Clorgyline]?
A: Percentage of cell with nuclear Arc immunostaining above 2σ threshold [1]: 7.4%; Fold-change — Normalized to DMSO control (BDNF) [2]: -2.6 fold

Q: `Cc1c(-c2ccccc2)oc2c(C(=O)OCCN3CCCCC3)cccc2c1=O` [Flavoxate] was tested. Which “Percentage of cell” value [1] did it give?
A: 3.1%

Q: Which results are given for `CCN(CC)CCOC(=O)c1ccc(N)cc1` [Procaine hydrochloride]?
A: Percentage of cell with nuclear Arc immunostaining above 2σ threshold [3]: 37.1%; Fold-change — Normalized to DMSO control (BDNF) [4]: 1.9 fold

Q: With `NS(=O)(=O)Cc1noc2ccccc12` [Zonisamide] as the compound, how does the “Percentage of cell” value [1] read?
A: 9.8%
